Literature values in publication PMC6271933, “Evaluation of the Toxicity of 5-Aryl-2-Aminoimidazole-Based Biofilm Inhibitors against Eukaryotic Cell Lines, Bone Cells and the Nematode Caenorhabditis elegans” (Molecules, 2014).

Experiments:
several tumor cell lines = system: several tumor cell lines; design: method as in PMID 1783523, PMID 15133248; conditions: cited from earlier work
[1] = system: murine-grafted tumors, including P388 and L1210 leukemias, and solid tumors; design: method as in PMID 1783523, PMID 15133248; conditions: cited from earlier work
[2] = system: calcium entry in PC12 cells; design: method as in PMID 15777959; conditions: cited from earlier work
mouse ES cells = system: mouse ES cells; design: method as in PMID 2998604; conditions: by inhibiting matrix metalloproteinase 2; cited from earlier work
[3] = system: epidermal growth factor-stimulated DNA synthesis in squamous cell tumors; conditions: squamous cell tumors; cited from earlier work
A-431 cells = system: A-431 cells; design: method as in PMID 9748366, PMID 12939464; conditions: cited from earlier work
[4] = system: GH4C1 rat pituitary and N2A mouse neuroblastoma cell lines; design: method as in PMID 18493660; conditions: compared with parent molecule bromoageliferin; cited from earlier work

Compound: NC[C@H](Cl)[C@@H](O)c1c[nH]c(N)n1 [2a, girolline]
- cytotoxicity in vitro against several tumor cell lines (several tumor cell lines): significant cytotoxicity
- cytotoxicity in vivo against murine-grafted tumors [1]: significant cytotoxicity

Compound: Nc1nc([C@@H]2c3[nH]c(N)nc3C[C@H](CNC(=O)c3cc(Br)c[nH]3)[C@H]2CNC(=O)c2cc(Br)c(Br)[nH]2)c[nH]1 [2b, bromoageliferin]
- calcium entry in PC12 cells [2]: inhibit the calcium entry

Compound: Nc1nc2c(-c3cc(Br)c(Br)[nH]3)nccc2[nH]1 [2d, ageladine A]
- angiogenesis in a model using mouse ES cells (mouse ES cells): reduce angiogenesis

Compound: COc1ccc(Cc2nc(NC3=NC(=O)N(C)C3=O)n(C)c2Cc2ccc(O)cc2)cc1 [2j, naamidine A]
- inhibition of epidermal growth factor-stimulated DNA synthesis [3]: potently inhibit
- cell cycle arrest of A-431 cells (A-431 cells): arrest in the G1 phase

Compound: NC[C@H]1Cc2nc(N)[nH]c2C[C@@H]1CN [2n]
- cytotoxicity in GH4C1 rat pituitary and N2A mouse neuroblastoma cell lines [4]: lack the cytotoxicity

Compound: NC[C@@H]1Cc2[nH]c(N)nc2C[C@@H]1CN [2o]
- cytotoxicity in GH4C1 rat pituitary and N2A mouse neuroblastoma cell lines [4]: lack the cytotoxicity

Compound: dibromoageliferin [2c]
- calcium entry in PC12 cells [2]: inhibit the calcium entry
